Kd, Selectivity and IC50 data for 7 compounds are collected here from patent US20250152585A1, “PHARMACEUTICAL COMPOUND” (Duke Street Bio Limited, priority 2022, published 2025).

Test [1] deals with T1, N-terminally FLAG-tagged PARP2 (amino acids 1-583) (Homo sapiens, UniProt Q9UGN5).
T1 construct: N-terminally FLAG-tagged PARP2 (amino acids 1-583)
Briefly: PARP2 probe displacement HTRF assay. The test is classed as binding. The conditions noted are these: binned Kd. The protocol: Data analysis was performed identical as for PARP1.

Another test concerns the target T2, PARP1 (Homo sapiens, UniProt P09874).
T2 construct: host or cells: HEK293
The test is described as follows: NanoBRET cellular target occupancy assay, PARP1. The test is classed as cell-based. The following applies: for Kd: HEK293 cells transiently transfected with PARP1-NanoLuc fusion, tracer 11 nM, 2 hours at 37° C., Kd by Cheng-Prussoff; for Selectivity: NanoBRET, PARP1 over PARP2, Kd (PARP2)/Kd (PARP1). On the technique in general: Bioluminescence resonance energy transfer reports proximity on the nanometre scale.

A further test concerns the target T3, PARP2 (Homo sapiens, UniProt Q9UGN5).
T3 construct: host or cells: HEK293
The test is described as follows: NanoBRET cellular target occupancy assay, PARP2. The following applies: HEK293 cells transiently transfected with PARP2-NanoLuc fusion; tracer 2 nM; 2 hours at 37° C.; Kd by Cheng-Prussoff. The test is classed as cell-based. From the text: NanoBRET Cellular Target Occupancy Assay

Test [2] addresses T4, full length N-terminally FLAG-tagged PARP1 (Homo sapiens, UniProt P09874). The test is described as follows: PARP1 probe displacement HTRF assay. The conditions noted are these: for Kd: binned Kd; for Selectivity: PARP1 over PARP2, ratio Kd (PARP2)/Kd (PARP1). A general note: TR-FRET usually uses a lanthanide donor and a delayed reading to cut background.
Test [3] has as its target T4, full length N-terminally FLAG-tagged PARP1. Briefly: PARP1 biochemical DELFIA assay (auto-PARylation). Details: recombinant full length human N-terminally FLAG-tagged PARP1.
The mark [4] stands for this setting: PARP1 HTRF, probe displacement HTRF.
The mark [5] stands for this setting: binned IC50, biochemical auto-PARylation assay.
Setting [6] is: read-out: PARP1 HTRF, PARP1 probe displacement HTRF.
Setting [7] is: binned IC50, PARP1 biochemical DELFIA assay.

As usually defined, the IC50 is the concentration needed to halve the response being measured.

Read-outs that look alike come from different tables or passages of the source.

T1 sequence (Q9UGN5 whole entry, the tested form may be a part): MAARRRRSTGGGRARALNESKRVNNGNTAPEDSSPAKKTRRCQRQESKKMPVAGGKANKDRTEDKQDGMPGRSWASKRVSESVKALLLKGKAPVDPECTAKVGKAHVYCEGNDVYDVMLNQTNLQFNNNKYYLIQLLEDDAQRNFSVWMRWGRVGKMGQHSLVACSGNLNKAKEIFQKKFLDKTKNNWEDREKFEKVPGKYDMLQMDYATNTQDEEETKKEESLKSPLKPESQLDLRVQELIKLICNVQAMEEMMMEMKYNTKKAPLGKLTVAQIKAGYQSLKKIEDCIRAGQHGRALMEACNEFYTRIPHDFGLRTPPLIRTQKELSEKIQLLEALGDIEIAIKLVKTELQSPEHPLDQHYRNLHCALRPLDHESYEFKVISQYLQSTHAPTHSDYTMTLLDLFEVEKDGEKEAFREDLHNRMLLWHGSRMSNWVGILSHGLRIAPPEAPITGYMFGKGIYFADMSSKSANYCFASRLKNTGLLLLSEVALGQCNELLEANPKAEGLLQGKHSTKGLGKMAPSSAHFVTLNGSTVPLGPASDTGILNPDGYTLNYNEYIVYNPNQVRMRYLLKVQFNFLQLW
T3 sequence (Q9UGN5 whole entry): as the sequence (Q9UGN5 whole entry, the tested form may be a part) above
T4 sequence (P09874 whole entry): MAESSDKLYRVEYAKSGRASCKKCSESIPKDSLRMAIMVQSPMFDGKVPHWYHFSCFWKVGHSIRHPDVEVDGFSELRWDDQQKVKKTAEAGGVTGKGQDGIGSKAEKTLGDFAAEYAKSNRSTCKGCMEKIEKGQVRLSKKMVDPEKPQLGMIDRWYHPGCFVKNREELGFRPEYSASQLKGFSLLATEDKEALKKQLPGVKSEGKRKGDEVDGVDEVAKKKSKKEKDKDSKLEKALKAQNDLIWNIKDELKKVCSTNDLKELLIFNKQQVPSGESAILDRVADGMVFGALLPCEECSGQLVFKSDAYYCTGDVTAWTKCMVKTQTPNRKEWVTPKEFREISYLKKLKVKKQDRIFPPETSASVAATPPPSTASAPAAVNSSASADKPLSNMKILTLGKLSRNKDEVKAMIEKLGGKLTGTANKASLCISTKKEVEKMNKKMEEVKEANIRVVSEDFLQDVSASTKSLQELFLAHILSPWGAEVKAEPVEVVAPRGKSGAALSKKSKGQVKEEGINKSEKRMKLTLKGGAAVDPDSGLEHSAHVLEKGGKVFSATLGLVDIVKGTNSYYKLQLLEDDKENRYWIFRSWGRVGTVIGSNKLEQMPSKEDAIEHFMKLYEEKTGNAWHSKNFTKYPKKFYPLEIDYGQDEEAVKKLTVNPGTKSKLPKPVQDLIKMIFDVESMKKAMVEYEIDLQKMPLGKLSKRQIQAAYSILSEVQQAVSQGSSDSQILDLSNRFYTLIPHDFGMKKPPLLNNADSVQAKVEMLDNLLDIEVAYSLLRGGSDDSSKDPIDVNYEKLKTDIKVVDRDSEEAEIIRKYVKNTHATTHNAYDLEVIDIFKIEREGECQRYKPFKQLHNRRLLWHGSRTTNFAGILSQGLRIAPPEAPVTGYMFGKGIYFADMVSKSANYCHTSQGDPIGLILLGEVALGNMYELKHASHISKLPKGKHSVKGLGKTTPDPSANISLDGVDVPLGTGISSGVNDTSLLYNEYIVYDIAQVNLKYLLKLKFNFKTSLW
T2 sequence (P09874 whole entry): as above

Take `CNC(=O)c1ccc(N2CCC(N3CC4(c5nc6ccc(F)cc6c(=O)[nH]5)CC3C4)CC2)c(F)n1` [Compound 259, 6-fluoro-5-(4-(4-(6-fluoro-4-oxo-3,4-dihydroquinazolin-2-yl)-2-azabicyclo[2.1.1]hexan-2-yl)piperidin-1-yl)-N-methylpicolinamide]: the Kd in test [1] (probe displacement HTRF) was 100 to 1000 nM; at PARP1 it was < 10 nM; at PARP2, 1000 to 10000 nM; in test [2] (setting [4]), < 10 nM. The Selectivity entry (at PARP1; in test [2] (probe displacement HTRF)) was “+++ (+++ indicate a value of at least 100)” in each case. Moreover, in test [3] (setting [5]), the IC50 was < 10 nM.
With `CNC(=O)c1ccc(N2CCC(N3CCC(c4cc5ccc(F)cc5c(=O)[nH]4)C3)CC2)c(F)n1` (single isomer, unassigned) [Compound 174b], the Kd was 10 to 100 nM in test [1] (PARP2 probe displacement HTRF), < 10 nM at PARP1, 100 to 1000 nM at PARP2 and < 10 nM in test [2] (setting [6]). The Selectivity entry (at PARP1; in test [2] (probe displacement HTRF)) was “+++ (+++ indicate a value of at least 100)” each time. Further, the IC50 in test [3] (setting [7]) was < 10 nM.
On to `CCc1cnc(C23CC(C2)N(C2CCN(c4ccc(C(=O)NC)nc4F)CC2)C3)[nH]c1=O` [Compound 300], for which the Kd is 1000 to 10000 nM in test [1] (probe displacement HTRF), < 10 nM at PARP1, > 10000 nM on PARP2 and < 10 nM in test [2] (setting [4]). The Selectivity result (at PARP1; in test [2] (probe displacement HTRF)) was “+++ (+++ indicate a value of at least 100)” in each case. Further, the IC50 in test [3] (setting [5]) was < 10 nM.
With `CNC(=O)c1ccc(N2CCC(N3CCC(c4cc5c(c(=O)[nH]4)CCCC5)C3)CC2)c(F)n1` (single isomer, unassigned) [Compound 337a, 6-fluoro-N-methyl-5-(4-(3-(1-oxo-1,2,5,6,7,8-hexahydroisoquinolin-3-yl)pyrrolidin-1-yl)piperidin-1-yl)picolinamide], the Kd in test [1] (probe displacement HTRF) was 100 to 1000 nM; at PARP1 it was < 10 nM; on PARP2, 1000 to 10000 nM; in test [2] (setting [4]), < 10 nM. The Selectivity result (on PARP1; in test [2] (probe displacement HTRF)) was “+++ (+++ indicate a value of at least 100)” in each case. The IC50 in test [3] (setting [5]) is < 10 nM.
On to `N#Cc1ccc(N2CCC(N3CCC(c4cc5cccc(F)c5c(=O)[nH]4)C3)CC2)cn1` (single isomer, unassigned) [Compound 316a], for which the Kd is 100 to 1000 nM in test [1] (probe displacement HTRF); < 10 nM on PARP1; 100 to 1000 nM on PARP2; < 10 nM in test [2] (read-out: PARP1 HTRF, probe displacement HTRF). In addition, the Selectivity entry (at PARP1; in test [2] (probe displacement HTRF)) was “+++ (+++ indicate a value of at least 100)” each time. Further, in test [3] (setting [5]), the IC50 is < 10 nM.
Regarding `CNC(=O)c1ccc(N2CCC(N3CCC(c4nc5ccc(Cl)cc5c(=O)[nH]4)C3)CC2)cn1` (single isomer, unassigned) [Compound 68a], the Kd is 100 to 1000 nM in test [1] (PARP2 probe displacement HTRF), < 10 nM on PARP1, 1000 to 10000 nM at PARP2 and < 10 nM in test [2] (setting [6]). Also, the Selectivity result (on PARP1; in test [2] (probe displacement HTRF)) was “+++ (+++ indicate a value of at least 100)” in each case. In addition, the IC50 in test [3] (setting [7]) is < 10 nM.
On to `CCc1ccc(C2CCN(C3CCN(c4ccc(C(=O)NC)nc4)CC3)C2)[nH]c1=O` (single isomer, unassigned) [Compound 72b], for which the Kd in test [1] (PARP2 probe displacement HTRF) was 100 to 1000 nM; on PARP1 it was < 10 nM; on PARP2, 1000 to 10000 nM; in test [2] (setting [6]), < 10 nM. Besides, the Selectivity result (on PARP1; in test [2] (probe displacement HTRF)) was “+++ (+++ indicate a value of at least 100)” each time. For the same compound, the IC50 in test [3] (setting [7]) was < 10 nM.
